Patent US20240116985A1, “STAPLED PEPTIDES AND METHODS THEREOF” (priority 2020, published 2024)

Assay: CHI Log D procedure
Type: physicochemical
Details: pH 7.4
With `CC(=O)N[C@@H](Cc1ccccc1)C(=O)N[C@@H](CC(=O)O)C(=O)N[C@@H](C)C(=O)N[C@]1(C)CCCCCCC=CCOC(=O)N2CC[C@@](C(=O)N[C@@H](Cc3ccccc3)C(=O)N[C@@H](Cc3c[nH]c4ccccc34)C(=O)N[C@@H](CCC(N)=O)C(N)=O)(C2)NC(=O)[C@H](C(C)C)NC(=O)[C@H](Cc2ccccc2)NC(=O)[C@H](C)NC(=O)[C@H](C)NC(=O)[C@H](CC2CCCCC2)NC(=O)[C@H](CC(=O)O)NC1=O` (single isomer, unassigned) [I-16, Ac-Phe-Asp-Ala-R8-Asp-Cha-Ala-Ala-Phe-Val-PyrS-Phe-Trp-Gln-NH2] the “CHI Log D” value was 2.21.
For `CC(=O)N[C@@H](Cc1ccccc1)C(=O)N[C@@H](CC(=O)O)C(=O)N[C@@H](C)C(=O)N[C@]1(C)CCCCCCC=CCOC(=O)N2CC[C@@](C(=O)N[C@@H](Cc3ccccc3)C(=O)N[C@@H](Cc3c[nH]c4ccccc34)C(=O)N[C@@H](CCC(N)=O)C(N)=O)(C2)NC(=O)[C@H](C(C)C)NC(=O)[C@H](Cc2ccccc2)NC(=O)[C@H](C)NC(=O)[C@H](C)NC(=O)[C@H](CCC(C)C)NC(=O)[C@H](CC(=O)O)NC1=O` (single isomer, unassigned) [I-18, Ac-Phe-Asp-Ala-R8-Asp-hLeu-Ala-Ala-Phe-Val-PyrS-Phe-Trp-Gln-NH2], the “CHI Log D” value was 2.108.
With `CC(=O)N[C@@H](Cc1ccccc1)C(=O)N[C@@H](CC(=O)O)C(=O)N[C@@H](C)C(=O)N[C@]1(C)CCCCCCC=CCOC(=O)N2CC[C@@](C(=O)N[C@@H](Cc3ccccc3)C(=O)N[C@@H](Cc3c[nH]c4ccccc34)C(=O)N[C@@H](CCC(N)=O)C(N)=O)(C2)NC(=O)[C@H](C(C)C)NC(=O)[C@H](Cc2ccccc2)NC(=O)[C@H](CC(=O)O)NC(=O)[C@H](C)NC(=O)[C@H](CC(=O)O)NC(=O)[C@H](CC(=O)O)NC1=O` (single isomer, unassigned) [I-20, Ac-Phe-Asp-Ala-R8-Asp-Asp-Ala-Asp-Phe-Val-PyrS-Phe-Trp-Gln-NH2] the “CHI Log D” value was 0.935.
For `CC(=O)N[C@@H](Cc1ccccc1)C(=O)N[C@@H](CC(=O)O)C(=O)N[C@@H](C)C(=O)N[C@]1(C)CCCCCCC=CCOC(=O)N2CC[C@@](C(=O)N[C@@H](Cc3ccccc3)C(=O)N[C@@H](Cc3c[nH]c4ccccc34)C(=O)N[C@@H](CCC(N)=O)C(N)=O)(C2)NC(=O)[C@H](C(C)C)NC(=O)[C@H](Cc2ccccc2)NC(=O)[C@H](CCC(=O)O)NC(=O)[C@H](C)NC(=O)[C@H](CC(=O)O)NC(=O)[C@H](CC(=O)O)NC1=O` (single isomer, unassigned) [I-22, Ac-Phe-Asp-Ala-R8-Asp-Asp-Ala-Glu-Phe-Val-PyrS-Phe-Trp-Gln-NH2], the “CHI Log D” value was 0.911.
For `CC(=O)N[C@@H](Cc1ccccc1)C(=O)N[C@@H](CC(=O)O)C(=O)N[C@@H](C)C(=O)N[C@]1(C)CCCCCCC=CCOC(=O)N2CC(C(=O)N[C@@H](Cc3ccccc3)C(=O)N[C@@H](Cc3c[nH]c4ccccc34)C(=O)N[C@@H](CCC(N)=O)C(N)=O)(C2)NC(=O)[C@H](C(C)C)NC(=O)[C@H](Cc2ccccc2)NC(=O)[C@H](C)NC(=O)[C@H](C)NC(=O)[C@H](CC(=O)O)NC(=O)[C@H](CC(=O)O)NC1=O` (single isomer, unassigned) [I-40, Ac-Phe-Asp-Ala-R8-Asp-Asp-Ala-Ala-Phe-Val-Az-Phe-Trp-Gln-NH2], the “CHI Log D” value was 1.243.

Same assay, conditions: pH 7.4, CHI Log D
A chromatographic logD of 2.1 was found for `CC(=O)N[C@@H](Cc1ccccc1)C(=O)N[C@@H](CC(=O)O)C(=O)N[C@@H](C)C(=O)N[C@]1(C)CCCCCCC=CCOC(=O)N2CC[C@@](C(=O)N[C@@H](Cc3ccccc3)C(=O)N[C@@H](Cc3c[nH]c4ccccc34)C(=O)N[C@@H](CCC(N)=O)C(N)=O)(C2)NC(=O)[C@H](C(C)C)NC(=O)[C@H](Cc2ccccc2)NC(=O)[C@H](C)NC(=O)[C@H](C)NC(=O)[C@H](CCC(C)C)NC(=O)[C@H](CC(=O)O)NC1=O` (single isomer, unassigned) [I-17, Ac-Phe-Asp-Ala-R8-Asp-hLeu-Ala-Ala-Phe-Val-PyrS-Phe-Trp-Gln-NH2] in this work.
A chromatographic logD of 0.948 was found for `CC(=O)N[C@@H](Cc1ccccc1)C(=O)N[C@@H](CC(=O)O)C(=O)N[C@@H](C)C(=O)N[C@]1(C)CCCCCCC=CCOC(=O)N2CC[C@@](C(=O)N[C@@H](Cc3ccccc3)C(=O)N[C@@H](Cc3c[nH]c4ccccc34)C(=O)N[C@@H](CCC(N)=O)C(N)=O)(C2)NC(=O)[C@H](C(C)C)NC(=O)[C@H](Cc2ccccc2)NC(=O)[C@H](CC(=O)O)NC(=O)[C@H](C)NC(=O)[C@H](CC(=O)O)NC(=O)[C@H](CC(=O)O)NC1=O` (single isomer, unassigned) [I-19, Ac-Phe-Asp-Ala-R8-Asp-Asp-Ala-Asp-Phe-Val-PyrS-Phe-Trp-Gln-NH2] in this work.
A chromatographic logD of 0.92 was found for `CC(=O)N[C@@H](Cc1ccccc1)C(=O)N[C@@H](CC(=O)O)C(=O)N[C@@H](C)C(=O)N[C@]1(C)CCCCCCC=CCOC(=O)N2CC[C@@](C(=O)N[C@@H](Cc3ccccc3)C(=O)N[C@@H](Cc3c[nH]c4ccccc34)C(=O)N[C@@H](CCC(N)=O)C(N)=O)(C2)NC(=O)[C@H](C(C)C)NC(=O)[C@H](Cc2ccccc2)NC(=O)[C@H](CCC(=O)O)NC(=O)[C@H](C)NC(=O)[C@H](CC(=O)O)NC(=O)[C@H](CC(=O)O)NC1=O` (single isomer, unassigned) [I-21, Ac-Phe-Asp-Ala-R8-Asp-Asp-Ala-Glu-Phe-Val-PyrS-Phe-Trp-Gln-NH2] in this work.
A chromatographic logD of 1.6 was found for `CC(=O)N[C@@H](Cc1ccccc1)C(=O)N[C@@H](CC(=O)O)C(=O)N[C@@H](C)C(=O)N[C@]1(C)CCCN(C)C(=O)OCC=CCCCC[C@@](C)(C(=O)N[C@@H](Cc2ccccc2)C(=O)N[C@@H](Cc2c[nH]c3ccccc23)C(=O)N[C@@H](CCC(N)=O)C(N)=O)NC(=O)[C@H](C(C)C)NC(=O)[C@H](Cc2ccccc2)NC(=O)[C@H](C)NC(=O)[C@H](C)NC(=O)[C@H](CC(=O)O)NC(=O)[C@H](CC(=O)O)NC1=O` (single isomer, unassigned) [I-29, Ac-Phe-Asp-Ala-ReN-Asp-Asp-Ala-Ala-Phe-Val-S6-Phe-Trp-Gln-NH2] in this work.
A chromatographic logD of 1.26 was found for `CC(=O)N[C@@H](Cc1ccccc1)C(=O)N[C@@H](CC(=O)O)C(=O)N[C@@H](C)C(=O)N[C@]1(C)CCCCCCC=CCOC(=O)N2CC(C(=O)N[C@@H](Cc3ccccc3)C(=O)N[C@@H](Cc3c[nH]c4ccccc34)C(=O)N[C@@H](CCC(N)=O)C(N)=O)(C2)NC(=O)[C@H](C(C)C)NC(=O)[C@H](Cc2ccccc2)NC(=O)[C@H](C)NC(=O)[C@H](C)NC(=O)[C@H](CC(=O)O)NC(=O)[C@H](CC(=O)O)NC1=O` (single isomer, unassigned) [I-39, Ac-Phe-Asp-Ala-R8-Asp-Asp-Ala-Ala-Phe-Val-Az-Phe-Trp-Gln-NH2] in this work.
A chromatographic logD of 1.09 was found for `CC(=O)N[C@@H](Cc1ccccc1)C(=O)N[C@@H](CC(=O)O)C(=O)N[C@@H](C)C(=O)N[C@]1(C)CCN(C)C(=O)OCC=CCC[C@@](C)(C(=O)N[C@@H](Cc2ccccc2)C(=O)N[C@@H](Cc2c[nH]c3ccccc23)C(=O)N[C@@H](CCC(N)=O)C(N)=O)NC(=O)[C@H](C(C)C)NC(=O)[C@H](Cc2ccccc2)NC(=O)[C@H](C)NC(=O)[C@H](C)NC(=O)[C@H](CC(=O)O)NC(=O)[C@H](CC(=O)O)NC1=O` (single isomer, unassigned) [I-41, Ac-Phe-Asp-Ala-RdN-Asp-Asp-Ala-Ala-Phe-Val-S4-Phe-Trp-Gln-NH2] in this work.
